# Assays:
# Assay in all cases: relative viability (nuclei count vs DMSO), 5 days (fraction); higher = more cells survive
# [1] = compound: CC[C@H](Nc1ncnc2[nH]cnc12)c1nc2cccc(F)c2c(=O)n1-c1ccccc1 [Idelalisib] + Cc1nc(Nc2ncc(C(=O)Nc3c(C)cccc3Cl)s2)cc(N2CCN(CCO)CC2)n1 [Dasatinib] (partner 0.075 µM)
# How it was run: (§1)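 Cells from lung cancer lines were seeded into 1536-well plates and, one day later, dosed by pin tool. Treatments were either a single drug or a fixed dose of an anchor drug with five library-drug doses (not always all listed) in √10 steps. After 5 days, nuclei were stained in a one-step fixation (final 0.05% Triton X-100, 1% formaldehyde, 1 ug/ml Hoechst) and counted on 4× images, and relative viability is the treated-to-vehicle nuclei ratio, as the median of duplicate plates.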
# [2] = compound: CC[C@H](Nc1ncnc2[nH]cnc12)c1nc2cccc(F)c2c(=O)n1-c1ccccc1 [Idelalisib] + O=C(CCCCCCC(=O)Nc1ccccc1)NO [Vorinostat] (partner 1 µM)
# How it was run: as §1
# [3] = compound: Nc1nc2[nH]cc(CCc3ccc(C(=O)N[C@@H](CCC(=O)O)C(=O)O)cc3)c2c(=O)[nH]1 [Pemetrexed] + CS(=O)(=O)N1CCN(Cc2cc3nc(-c4cccc5[nH]ncc45)nc(N4CCOCC4)c3s2)CC1 [Pictilisib] (partner 1 µM)
# How it was run: as §1
# [4] = compound: Nc1nc2[nH]cc(CCc3ccc(C(=O)N[C@@H](CCC(=O)O)C(=O)O)cc3)c2c(=O)[nH]1 [Pemetrexed] + Cc1nc(Nc2ncc(C(=O)Nc3c(C)cccc3Cl)s2)cc(N2CCN(CCO)CC2)n1 [Dasatinib] (partner 0.075 µM)
# How it was run: as §1
Cell Line,relative viability ([1]; first compound 0.04 µM),relative viability ([1]; first compound 0.1265 µM),relative viability ([1]; first compound 0.4 µM),relative viability ([1]; first compound 1.265 µM),relative viability ([1]; first compound 4 µM),relative viability ([2]; first compound 0.04 µM),relative viability ([2]; first compound 0.1265 µM),relative viability ([2]; first compound 0.4 µM),relative viability ([2]; first compound 1.265 µM),relative viability ([2]; first compound 4 µM),relative viability ([3]; first compound 0.002 µM),relative viability ([3]; first compound 0.006325 µM),relative viability ([3]; first compound 0.02 µM),relative viability ([3]; first compound 0.06325 µM),relative viability ([3]; first compound 0.2 µM),relative viability ([4]; first compound 0.002 µM),relative viability ([4]; first compound 0.006325 µM),relative viability ([4]; first compound 0.02 µM),relative viability ([4]; first compound 0.06325 µM),relative viability ([4]; first compound 0.2 µM)
SK-LU-1,0.165,0.163,0.153,0.153,0.186,0.739,0.735,0.645,0.813,0.768,0.43,0.559,0.727,0.513,0.496,0.184,0.205,0.185,0.198,0.162
NCI-H1395,0.417,0.369,0.375,0.385,0.366,0.841,0.813,0.692,0.674,0.692,0.824,0.58,0.679,0.54,0.574,0.441,0.471,0.481,0.369,0.401
COR-L23,0.442,0.42,0.388,0.455,0.417,0.535,0.396,0.396,0.535,0.421,0.58,0.688,0.825,0.24,0.147,0.457,0.468,0.396,0.263,0.135
EMC-BAC-2,0.319,0.337,0.283,0.321,0.346,0.639,0.42,0.419,0.496,0.633,0.534,0.465,0.564,0.579,0.421,0.161,0.344,0.32,0.331,0.27
NCI-H1355,0.631,0.791,0.504,0.561,0.518,0.628,0.662,0.512,0.612,0.548,0.294,0.383,0.377,0.481,0.428,0.612,0.692,0.703,0.748,0.752
NCI-H1944,0.241,0.205,0.169,0.196,0.202,0.68,0.526,0.529,0.5,0.48,0.307,0.345,0.337,0.345,0.327,,0.201,0.195,0.212,0.217
ABC-1,0.537,0.599,0.582,0.681,0.573,1.01,1.13,0.751,1.03,1.39,0.947,0.662,0.954,0.826,0.706,0.785,0.591,0.626,0.546,0.422
HOP-62,0.636,0.714,0.547,0.581,0.526,0.669,0.66,0.576,0.619,0.491,0.351,0.666,0.817,0.655,0.655,0.522,0.636,0.659,0.674,0.629
NCI-H2009,0.335,0.302,0.266,0.252,0.197,0.751,0.751,0.663,0.688,0.72,0.785,0.763,0.824,0.744,0.723,0.299,0.289,0.377,0.265,0.307

# Source: the supplement of paper PMC10307832
